From US12121606B2, “Methods and compositions for improving skin” (L'OREAL, priority 2021, dated 2024)

System: in vitro skin samples (EPISKIN)
Assay: In vitro skin samples after fractional laser procedure, wound healing by OCT imaging
Type: cell-based
Details: application after the fractional laser procedure
Method: The benefits of applying the Composition 4 to skin after a procedure that reduces the barrier function of skin was evaluated in vitro using samples generated by the EPISKIN™ group. Composition 4 comprised 0.5 wt. % of acetyl trifluoromethylphenyl valylglycine and 2 wt. % ethanol with the remainder being water, with all weight percentages based on the total weight of the formulation. A comparative composition (Comparative Composition A) containing transforming growth factor alpha (“TGF-α”) was also evaluated as a comparison to the Composition 4.
Specifically, a fractional laser procedure that is typical of laser resurfacing procedures was applied to the in vitro skin samples. The in vitro skin samples were characterized using non-invasive imaging analysis to determine the wound morphology of the in vitro skin samples. The kinetics and quantification of wound healing after the laser treatment was evaluated using optical coherence tomography (OCT). The optical measurements were performed at seven time points over the culture period. This was achieved using an OCT system produced by Thorlabs (Newton, N.J., USA) with an axial resolution of 8 μm.
Composition 4 and Comparative Composition A were applied by adding 10 uL onto in vitro skin samples after the fractional laser procedure. […]

Q: `CC(=O)N(c1cccc(C(F)(F)F)c1)C(C(=O)NCC(=O)O)C(C)C` (stereo not shown) [acetyl trifluoromethylphenyl valylglycine] was tested. Which “regeneration of the epidermis” value did it give?
A: The value was “enhanced regeneration of the epidermis”.
